Source: ChEMBL document CHEMBL4387741, “Optimization of novel reversible Bruton's tyrosine kinase inhibitors identified using Tethering-fragment-based screens” (Bioorg Med Chem, 2019)

How the values were obtained:
[1] = system: Tyrosine-protein kinase ABL1 (Homo sapiens), P00519 [E255K]; assay: Inhibition of human phosphorylated ABL1 E255K mutant (S229 to K512 residues) expressed in mammalian expression system at 1 uM by Kinomescan method relative to control
[2] = system: ALK tyrosine kinase receptor (Homo sapiens), Q9UM73 [L1196M]; assay: Inhibition of wild-type human partial length ALK L1196M mutant (I1088 to E1409 residues) expressed in mammalian expression system at 1 uM by Kinomescan method relative to control
[3] = target: Tyrosine-protein kinase CSK (Homo sapiens) (UniProt P41240); assay: Inhibition of wild-type human full length CSK (M1 to L450 residues) expressed in bacterial expression system at 1 uM by Kinomescan method relative to control
[4] = target: Serine/threonine-protein kinase 17B (Homo sapiens) (UniProt O94768); assay: Inhibition of wild-type human full length DRAK2 (M1 to C372 residues) expressed in bacterial expression system at 1 uM by Kinomescan method relative to control
[5] = system: Epidermal growth factor receptor (Homo sapiens), P00533 [UNDEFINED MUTATION]; assay: Inhibition of human partial length EGFR L747-E749del/A750P mutant expressed in bacterial expression system at 1 uM by Kinomescan method relative to control
[6] = target: Ephrin type-A receptor 3 (Homo sapiens) (UniProt P29320); assay: Inhibition of wild-type human partial length EPHA3 (D604 to K889 residues) expressed in bacterial expression system at 1 uM by Kinomescan method relative to control
[7] = target: Mitogen-activated protein kinase kinase kinase kinase 4 (Homo sapiens) (UniProt O95819); assay: Inhibition of wild-type human partial length MAP4K4 (M1 to R310 residues) expressed in bacterial expression system at 1 uM by Kinomescan method relative to control
[8] = target: Mitogen-activated protein kinase kinase kinase 14 (Homo sapiens) (UniProt Q99558); assay: Inhibition of wild-type human partial length NIK (L318 to P947 residues) expressed in mammalian expression system at 1 uM by Kinomescan method relative to control
[9] = target: Platelet-derived growth factor receptor alpha (Homo sapiens) (UniProt P16234); assay: Inhibition of wild-type human partial length PDGFRA (V575 to D1002 residues) expressed in mammalian expression system at 1 uM by Kinomescan method relative to control
[10] = target: cAMP-dependent protein kinase catalytic subunit alpha (Homo sapiens) (UniProt P17612); assay: Inhibition of wild-type human partial length PKAC-alpha (G10 to F351 residues) expressed in bacterial expression system at 1 uM by Kinomescan method relative to control
[11] = target: Membrane-associated tyrosine- and threonine-specific cdc2-inhibitory kinase (Homo sapiens) (UniProt Q99640); assay: Inhibition of wild-type human partial length PKMYT1 (A88 to G366 residues) expressed in bacterial expression system at 1 uM by Kinomescan method relative to control
[12] = target: Protein kinase C eta type (Homo sapiens) (UniProt P24723); assay: Inhibition of wild-type human partial length PRKCH (S324 to P683 residues) expressed in bacterial expression system at 1 uM by Kinomescan method relative to control
[13] = target: Ribosomal protein S6 kinase alpha-3 (Homo sapiens) (UniProt P51812); assay: Inhibition of wild-type human partial length C-terminal RSK2 kinase domain 2 (V402 to S715 residues) expressed in mammalian expression system at 1 uM by Kinomescan method relative to control
[14] = target: Tyrosine-protein kinase receptor Tie-1 (Homo sapiens) (UniProt P35590); assay: Inhibition of wild-type human partial length TIE1 (T819 to A1138 residues) expressed in bacterial expression system at 1 uM by Kinomescan method relative to control
[15] = target: TRAF2 and NCK-interacting protein kinase (Homo sapiens) (UniProt Q9UKE5); assay: Inhibition of wild-type human partial length TNIK (D4 to K311 residues) expressed in bacterial expression system at 1 uM by Kinomescan method relative to control
[16] = target: Serine/threonine-protein kinase TNNI3K (Homo sapiens) (UniProt Q59H18); assay: Inhibition of wild-type human full length TNNI3K (M1 to S835 residues) expressed in bacterial expression system at 1 uM by Kinomescan method relative to control
[17] = system: Tyrosine-protein kinase ABL1 (Homo sapiens), P00519 [F317L]; assay: Inhibition of human phosphorylated ABL1 F317L mutant (S229 to K512 residues) expressed in mammalian expression system at 10 uM by Kinomescan method relative to control
[18] = target: Ankyrin repeat and protein kinase domain-containing protein 1 (Homo sapiens) (UniProt Q8NFD2); assay: Inhibition of wild-type human partial length ANKK1 (M1 to A305 residues) expressed in mammalian expression system at 10 uM by Kinomescan method relative to control
[19] = target: Ephrin type-A receptor 6 (Homo sapiens) (UniProt Q9UF33); assay: Inhibition of wild-type human partial length EPHA6 (Y700 to E1046 residues) expressed in bacterial expression system at 10 uM by Kinomescan method relative to control
[20] = target: G protein-coupled receptor kinase 3 (Homo sapiens) (UniProt P35626); assay: Inhibition of wild-type human full length GRK3 (M1 to L688 residues) expressed in mammalian expression system at 10 uM by Kinomescan method relative to control
[21] = target: Leucine-rich repeat serine/threonine-protein kinase 2 (Homo sapiens) (UniProt Q5S007); assay: Inhibition of wild-type human partial length LRRK2 (H970 to E2527 residues) expressed in mammalian expression system at 10 uM by Kinomescan method relative to control
[22] = system: Leucine-rich repeat serine/threonine-protein kinase 2 (Homo sapiens), Q5S007 [G2019S]; assay: Inhibition of human partial length LRRK2 G2019S mutant (H970 to E2527 residues) expressed in mammalian expression system at 10 uM by Kinomescan method relative to control
[23] = target: Phosphatidylinositol 4-phosphate 3-kinase C2 domain-containing subunit beta (Homo sapiens) (UniProt O00750); assay: Inhibition of wild-type human partial length PIK3C2B (M1 to L1634 residues) expressed in mammalian expression system at 10 uM by Kinomescan method relative to control
[24] = target: Serine/threonine-protein kinase pim-2 (Homo sapiens) (UniProt Q9P1W9); assay: Inhibition of wild-type human partial length PIM2 (M1 to E291 residues) expressed in bacterial expression system at 10 uM by Kinomescan method relative to control
[25] = target: Serine/threonine-protein kinase ULK3 (Homo sapiens) (UniProt Q6PHR2); assay: Inhibition of wild-type human partial length ULK3 (M1 to Q290 residues) expressed in mammalian expression system at 10 uM by Kinomescan method relative to control
[26] = target: Serine/threonine-protein kinase WNK1 (Homo sapiens) (UniProt Q9H4A3); assay: Inhibition of wild-type human partial length WNK1 (Q194 to A490 residues) expressed in mammalian expression system at 10 uM by Kinomescan method relative to control

Chain of Ribosomal protein S6 kinase alpha-3 (Homo sapiens) (P51812 whole entry, the tested form may be a part): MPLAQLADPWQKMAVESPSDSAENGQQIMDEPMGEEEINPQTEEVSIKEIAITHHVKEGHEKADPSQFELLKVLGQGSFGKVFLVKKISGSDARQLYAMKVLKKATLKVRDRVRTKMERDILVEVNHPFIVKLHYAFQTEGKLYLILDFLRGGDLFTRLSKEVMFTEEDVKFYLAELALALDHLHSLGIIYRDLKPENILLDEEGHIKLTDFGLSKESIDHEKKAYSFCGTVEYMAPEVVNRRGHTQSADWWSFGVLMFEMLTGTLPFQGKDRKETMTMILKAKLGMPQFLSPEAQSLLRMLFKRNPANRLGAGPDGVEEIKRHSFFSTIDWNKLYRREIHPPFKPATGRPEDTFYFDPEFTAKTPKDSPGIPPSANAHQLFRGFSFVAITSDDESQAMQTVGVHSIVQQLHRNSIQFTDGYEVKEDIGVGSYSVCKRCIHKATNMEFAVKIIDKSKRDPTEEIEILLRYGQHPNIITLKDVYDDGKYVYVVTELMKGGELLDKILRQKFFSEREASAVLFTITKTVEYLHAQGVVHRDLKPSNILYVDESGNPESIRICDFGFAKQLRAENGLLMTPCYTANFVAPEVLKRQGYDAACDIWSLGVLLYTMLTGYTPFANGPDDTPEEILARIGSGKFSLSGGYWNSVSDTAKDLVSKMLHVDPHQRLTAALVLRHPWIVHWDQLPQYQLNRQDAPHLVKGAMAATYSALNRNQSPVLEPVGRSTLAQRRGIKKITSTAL
Chain of Serine/threonine-protein kinase 17B (Homo sapiens) (O94768 whole entry, the tested form may be a part): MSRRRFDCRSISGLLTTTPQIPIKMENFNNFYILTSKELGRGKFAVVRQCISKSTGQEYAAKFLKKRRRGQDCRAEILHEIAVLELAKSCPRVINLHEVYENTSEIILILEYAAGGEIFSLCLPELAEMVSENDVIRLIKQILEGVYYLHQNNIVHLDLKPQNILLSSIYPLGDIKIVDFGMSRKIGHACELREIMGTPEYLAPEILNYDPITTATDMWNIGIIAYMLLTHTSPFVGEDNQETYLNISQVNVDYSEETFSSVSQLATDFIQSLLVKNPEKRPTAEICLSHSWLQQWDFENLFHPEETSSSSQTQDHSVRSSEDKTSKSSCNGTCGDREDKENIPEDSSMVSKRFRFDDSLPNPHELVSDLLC
Chain of Mitogen-activated protein kinase kinase kinase 14 (Homo sapiens) (Q99558 whole entry, looked up, the tested form may be a part): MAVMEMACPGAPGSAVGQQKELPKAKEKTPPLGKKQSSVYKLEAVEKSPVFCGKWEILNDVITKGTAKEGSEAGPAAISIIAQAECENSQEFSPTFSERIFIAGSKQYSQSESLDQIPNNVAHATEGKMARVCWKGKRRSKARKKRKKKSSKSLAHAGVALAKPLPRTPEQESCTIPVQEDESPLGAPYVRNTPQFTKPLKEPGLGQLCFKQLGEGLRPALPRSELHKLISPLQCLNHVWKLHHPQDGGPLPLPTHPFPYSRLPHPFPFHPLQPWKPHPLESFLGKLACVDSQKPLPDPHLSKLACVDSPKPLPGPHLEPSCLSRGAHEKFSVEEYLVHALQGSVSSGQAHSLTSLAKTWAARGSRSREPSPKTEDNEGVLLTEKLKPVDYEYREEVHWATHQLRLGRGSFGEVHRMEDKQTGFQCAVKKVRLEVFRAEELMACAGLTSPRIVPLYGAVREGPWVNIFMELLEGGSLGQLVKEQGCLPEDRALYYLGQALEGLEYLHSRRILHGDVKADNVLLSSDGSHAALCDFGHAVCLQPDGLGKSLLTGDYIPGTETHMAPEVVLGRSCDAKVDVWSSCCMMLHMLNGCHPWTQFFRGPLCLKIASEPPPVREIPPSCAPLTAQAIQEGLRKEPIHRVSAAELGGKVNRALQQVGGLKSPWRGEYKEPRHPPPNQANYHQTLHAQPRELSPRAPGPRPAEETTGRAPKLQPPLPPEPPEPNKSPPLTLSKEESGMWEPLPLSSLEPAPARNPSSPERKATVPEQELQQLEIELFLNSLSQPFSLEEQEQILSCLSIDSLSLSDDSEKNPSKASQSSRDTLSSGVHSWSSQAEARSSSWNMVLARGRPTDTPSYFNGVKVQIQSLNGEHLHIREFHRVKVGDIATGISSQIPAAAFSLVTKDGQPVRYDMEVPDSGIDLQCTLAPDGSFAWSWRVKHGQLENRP
Chain of Platelet-derived growth factor receptor alpha (Homo sapiens) (P16234 whole entry, the tested form may be a part): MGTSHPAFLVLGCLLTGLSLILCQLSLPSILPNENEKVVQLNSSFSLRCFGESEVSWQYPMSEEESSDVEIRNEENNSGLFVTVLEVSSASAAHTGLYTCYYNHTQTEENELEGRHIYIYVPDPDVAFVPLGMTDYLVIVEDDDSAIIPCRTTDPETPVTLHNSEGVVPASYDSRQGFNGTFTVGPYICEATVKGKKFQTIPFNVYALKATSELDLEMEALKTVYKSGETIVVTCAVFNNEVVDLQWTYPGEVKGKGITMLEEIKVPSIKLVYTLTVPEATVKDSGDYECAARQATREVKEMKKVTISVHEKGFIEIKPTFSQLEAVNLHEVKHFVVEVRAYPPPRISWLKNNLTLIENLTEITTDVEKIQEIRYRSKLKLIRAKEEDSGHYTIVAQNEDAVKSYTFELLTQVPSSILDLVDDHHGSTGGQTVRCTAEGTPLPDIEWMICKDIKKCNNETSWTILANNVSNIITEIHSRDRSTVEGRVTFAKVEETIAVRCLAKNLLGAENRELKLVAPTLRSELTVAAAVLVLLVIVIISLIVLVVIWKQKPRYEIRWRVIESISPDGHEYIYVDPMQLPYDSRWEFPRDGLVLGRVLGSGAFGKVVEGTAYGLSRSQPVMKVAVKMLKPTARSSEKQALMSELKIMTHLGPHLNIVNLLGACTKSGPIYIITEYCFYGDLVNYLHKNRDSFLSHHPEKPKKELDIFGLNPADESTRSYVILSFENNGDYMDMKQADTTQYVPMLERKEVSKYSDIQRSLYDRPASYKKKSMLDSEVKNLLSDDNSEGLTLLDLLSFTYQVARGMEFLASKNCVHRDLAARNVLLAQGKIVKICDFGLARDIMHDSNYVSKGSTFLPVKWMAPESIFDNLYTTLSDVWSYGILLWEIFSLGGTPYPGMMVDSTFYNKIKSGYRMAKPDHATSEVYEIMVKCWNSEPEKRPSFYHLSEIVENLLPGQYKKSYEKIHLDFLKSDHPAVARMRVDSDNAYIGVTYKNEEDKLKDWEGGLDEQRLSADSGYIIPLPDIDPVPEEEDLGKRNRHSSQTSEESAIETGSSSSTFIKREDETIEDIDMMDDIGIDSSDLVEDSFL
Chain of Serine/threonine-protein kinase ULK3 (Homo sapiens) (Q6PHR2 whole entry, the tested form may be a part): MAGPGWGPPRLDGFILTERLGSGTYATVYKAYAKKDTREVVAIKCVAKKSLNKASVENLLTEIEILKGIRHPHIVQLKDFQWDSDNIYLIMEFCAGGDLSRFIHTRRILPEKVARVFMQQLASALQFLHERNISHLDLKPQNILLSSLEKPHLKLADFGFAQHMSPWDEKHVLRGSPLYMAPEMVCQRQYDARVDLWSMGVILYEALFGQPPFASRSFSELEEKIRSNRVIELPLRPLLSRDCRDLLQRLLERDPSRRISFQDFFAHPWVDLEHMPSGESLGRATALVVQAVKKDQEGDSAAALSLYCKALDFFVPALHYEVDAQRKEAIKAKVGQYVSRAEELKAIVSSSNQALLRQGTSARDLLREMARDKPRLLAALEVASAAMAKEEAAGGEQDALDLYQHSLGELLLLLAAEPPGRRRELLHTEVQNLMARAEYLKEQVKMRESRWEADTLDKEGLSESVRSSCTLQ
Chain of Serine/threonine-protein kinase TNNI3K (Homo sapiens) (Q59H18 whole entry, the tested form may be a part): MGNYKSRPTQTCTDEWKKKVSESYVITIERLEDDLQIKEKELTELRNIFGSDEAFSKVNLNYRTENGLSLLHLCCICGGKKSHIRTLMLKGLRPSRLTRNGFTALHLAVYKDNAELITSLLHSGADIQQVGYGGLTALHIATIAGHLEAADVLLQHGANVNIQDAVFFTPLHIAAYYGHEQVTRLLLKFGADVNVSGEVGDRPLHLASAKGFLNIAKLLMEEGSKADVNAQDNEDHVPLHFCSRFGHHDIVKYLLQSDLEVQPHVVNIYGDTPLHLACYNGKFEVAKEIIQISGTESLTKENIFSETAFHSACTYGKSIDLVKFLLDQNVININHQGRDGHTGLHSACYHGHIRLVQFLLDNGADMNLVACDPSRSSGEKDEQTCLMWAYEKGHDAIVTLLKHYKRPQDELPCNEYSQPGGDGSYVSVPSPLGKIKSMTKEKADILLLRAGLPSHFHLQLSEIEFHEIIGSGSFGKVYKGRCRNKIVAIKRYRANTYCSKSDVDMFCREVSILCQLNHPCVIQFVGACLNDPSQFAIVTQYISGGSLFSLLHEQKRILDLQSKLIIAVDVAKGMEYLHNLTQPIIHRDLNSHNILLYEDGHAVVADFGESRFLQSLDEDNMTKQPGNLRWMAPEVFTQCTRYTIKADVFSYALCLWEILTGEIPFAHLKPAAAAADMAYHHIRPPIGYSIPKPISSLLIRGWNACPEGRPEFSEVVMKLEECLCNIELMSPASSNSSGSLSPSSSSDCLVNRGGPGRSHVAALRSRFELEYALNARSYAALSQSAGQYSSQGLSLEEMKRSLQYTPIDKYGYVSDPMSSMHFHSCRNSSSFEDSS
Chain of Serine/threonine-protein kinase pim-2 (Homo sapiens) (Q9P1W9 whole entry, looked up, the tested form may be a part): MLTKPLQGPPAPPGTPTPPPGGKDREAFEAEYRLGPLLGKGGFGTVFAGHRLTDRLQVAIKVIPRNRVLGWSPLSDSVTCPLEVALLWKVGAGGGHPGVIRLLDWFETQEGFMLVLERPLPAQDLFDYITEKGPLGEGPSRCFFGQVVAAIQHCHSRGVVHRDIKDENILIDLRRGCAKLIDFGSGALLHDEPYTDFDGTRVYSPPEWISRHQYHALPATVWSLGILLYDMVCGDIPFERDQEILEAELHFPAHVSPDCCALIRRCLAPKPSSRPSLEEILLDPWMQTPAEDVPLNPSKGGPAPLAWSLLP

Compound: O=C(Nc1cccc([C@@H]2CN(c3ncnc4[nH]ccc34)CCN2CCO)c1)Nc1c(F)cccc1N1CCCC1
- inhibition [1]: 43%
- inhibition [2]: 74%
- inhibition [3]: 65%
- inhibition [4]: 73%
- inhibition [5]: 87%
- inhibition [6]: 100%
- inhibition [7]: 100%
- inhibition [8]: 84%
- inhibition [9]: 85%
- inhibition [10]: 76%
- inhibition [11]: 84%
- inhibition [12]: 80%
- inhibition [13]: 100%
- inhibition [14]: 99%
- inhibition [15]: 81%
- inhibition [16]: 100%

Compound: O=C(Nc1cccc([C@H]2CCCN(c3ncnc4[nH]ccc34)C2)c1)Nc1ccccc1N1CCCC1
- inhibition [17]: 87%
- inhibition [18]: 96%
- inhibition [19]: 51%
- inhibition [20]: 71%
- inhibition [21]: 96%
- inhibition [22]: 63%
- inhibition [23]: 51%
- inhibition [24]: 100%
- inhibition [25]: 6.2%
- inhibition [26]: 72%
